Reference: patent US8604217B2, “Compound, a process for its preparation, a pharmaceutical composition, use of a compound, a method for modulating or regulating serine/threonine kinases and a serine/threonine kinases modulating agent” (Selvita S.A., priority 2009, dated 2013)

Key:
Experiment in all cases: KinaseProfiler kinase panel
Type in all cases: biochemical
PIM-1(h) = PIM-1(h) (Homo sapiens (Human), UniProt P11309)
Haspin(h) = Haspin(h) (Homo sapiens (Human), UniProt Q8TF76)
TAO1(h) = TAO1(h) (Homo sapiens (Human), UniProt Q7L7X3)
PIM-2(h) = PIM-2(h) (Homo sapiens (Human), UniProt Q9P1W9)
PIM-2(h), sequence (Q9P1W9 whole entry): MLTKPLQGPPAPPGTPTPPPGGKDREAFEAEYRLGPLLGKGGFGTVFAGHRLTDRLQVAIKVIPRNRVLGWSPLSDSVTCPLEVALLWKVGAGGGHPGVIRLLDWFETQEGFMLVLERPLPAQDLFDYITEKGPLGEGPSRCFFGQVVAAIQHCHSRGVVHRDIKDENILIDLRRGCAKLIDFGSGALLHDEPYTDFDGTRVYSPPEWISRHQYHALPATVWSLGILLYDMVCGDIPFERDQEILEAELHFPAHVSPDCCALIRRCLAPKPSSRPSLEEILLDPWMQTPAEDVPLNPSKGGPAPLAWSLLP

EGFR(L858R)(h) = EGFR(L858R)(h) (Homo sapiens (Human), UniProt P00533, L858R)
MKK6(h) = MKK6(h) (Homo sapiens (Human), UniProt P52564)
LOK(h) = LOK(h) (Homo sapiens (Human), UniProt O94804)
Met(D1246H)(h) = Met(D1246H)(h) (Homo sapiens (Human), UniProt P08581, D1246H)
CK2α2(h) = CK2α2(h) (Homo sapiens (Human), UniProt P19784)
Fyn(h) = Fyn(h) (Homo sapiens (Human), UniProt P06241)
Fyn(h), sequence (P06241 whole entry): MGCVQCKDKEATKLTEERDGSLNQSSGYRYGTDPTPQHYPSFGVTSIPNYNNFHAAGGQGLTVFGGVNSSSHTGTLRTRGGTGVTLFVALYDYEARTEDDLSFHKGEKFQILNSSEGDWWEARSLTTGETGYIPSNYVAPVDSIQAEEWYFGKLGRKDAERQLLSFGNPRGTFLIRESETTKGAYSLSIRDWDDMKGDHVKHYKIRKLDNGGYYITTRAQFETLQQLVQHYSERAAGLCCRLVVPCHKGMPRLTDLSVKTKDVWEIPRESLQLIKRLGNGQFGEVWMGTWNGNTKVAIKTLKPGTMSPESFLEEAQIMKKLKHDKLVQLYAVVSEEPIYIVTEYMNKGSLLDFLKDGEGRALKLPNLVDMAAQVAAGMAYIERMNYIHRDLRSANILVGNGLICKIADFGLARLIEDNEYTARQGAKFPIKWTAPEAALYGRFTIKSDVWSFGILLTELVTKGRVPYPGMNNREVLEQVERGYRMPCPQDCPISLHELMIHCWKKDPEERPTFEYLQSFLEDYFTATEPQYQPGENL

MEK1(h) = MEK1(h) (Homo sapiens (Human), UniProt Q02750)
GCK(h) = GCK(h) (Homo sapiens (Human), UniProt Q12851)
cSRC(h) = cSRC(h) (Homo sapiens (Human), UniProt P12931)
MAPK2(m) = MAPK2(m) (Mus musculus (Mouse), UniProt P63085)
PAR-1Bα(h) = PAR-1Bα(h) (Homo sapiens (Human), UniProt Q7KZI7)
SAPK2a(T106M)(h) = SAPK2a(T106M)(h) (Homo sapiens (Human), UniProt Q16539, T106M)
MLK1(h) = MLK1(h) (Homo sapiens (Human), UniProt P80192)
MLK1(h), sequence (P80192 whole entry): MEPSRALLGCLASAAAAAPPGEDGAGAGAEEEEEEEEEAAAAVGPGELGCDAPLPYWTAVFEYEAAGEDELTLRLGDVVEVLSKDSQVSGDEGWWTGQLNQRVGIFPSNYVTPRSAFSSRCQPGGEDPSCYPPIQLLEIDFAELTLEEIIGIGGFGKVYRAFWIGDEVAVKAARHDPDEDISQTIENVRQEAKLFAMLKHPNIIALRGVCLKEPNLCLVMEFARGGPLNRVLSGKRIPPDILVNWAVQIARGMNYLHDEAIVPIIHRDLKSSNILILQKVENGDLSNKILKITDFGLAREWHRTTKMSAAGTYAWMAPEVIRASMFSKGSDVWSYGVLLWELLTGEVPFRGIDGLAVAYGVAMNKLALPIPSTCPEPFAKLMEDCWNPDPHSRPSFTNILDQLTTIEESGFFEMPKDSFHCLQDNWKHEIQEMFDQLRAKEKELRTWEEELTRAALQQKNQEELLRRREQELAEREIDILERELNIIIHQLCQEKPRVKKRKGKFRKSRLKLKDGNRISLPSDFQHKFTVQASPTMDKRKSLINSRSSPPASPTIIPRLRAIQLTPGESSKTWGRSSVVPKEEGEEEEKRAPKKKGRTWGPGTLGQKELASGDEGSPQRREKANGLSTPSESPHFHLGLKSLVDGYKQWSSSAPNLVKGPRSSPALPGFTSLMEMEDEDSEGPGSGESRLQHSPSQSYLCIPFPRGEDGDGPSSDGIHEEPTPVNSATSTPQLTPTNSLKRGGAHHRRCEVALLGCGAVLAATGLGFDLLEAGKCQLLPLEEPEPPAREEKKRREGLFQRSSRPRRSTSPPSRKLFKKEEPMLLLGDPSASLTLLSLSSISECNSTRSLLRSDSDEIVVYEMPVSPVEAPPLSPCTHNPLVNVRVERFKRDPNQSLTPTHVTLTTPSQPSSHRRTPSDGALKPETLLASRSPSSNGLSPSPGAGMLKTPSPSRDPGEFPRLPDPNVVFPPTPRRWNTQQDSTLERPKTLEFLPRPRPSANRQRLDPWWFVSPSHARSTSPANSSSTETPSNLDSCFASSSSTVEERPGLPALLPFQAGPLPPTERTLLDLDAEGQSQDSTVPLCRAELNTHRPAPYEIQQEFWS

EGFR(h) = EGFR(h) (Homo sapiens (Human), UniProt P00533)
ErbB4(h) = ErbB4(h) (Homo sapiens (Human), UniProt Q15303)
ROCK-I(h) = ROCK-I(h) (Homo sapiens (Human), UniProt Q13464)
Abl(T315I)(h) = Abl(T315I)(h) (Homo sapiens (Human), UniProt P00519, T315I)
ARK5(h) = ARK5(h) (Homo sapiens (Human), UniProt O60285)
ARK5(h), sequence (O60285 whole entry): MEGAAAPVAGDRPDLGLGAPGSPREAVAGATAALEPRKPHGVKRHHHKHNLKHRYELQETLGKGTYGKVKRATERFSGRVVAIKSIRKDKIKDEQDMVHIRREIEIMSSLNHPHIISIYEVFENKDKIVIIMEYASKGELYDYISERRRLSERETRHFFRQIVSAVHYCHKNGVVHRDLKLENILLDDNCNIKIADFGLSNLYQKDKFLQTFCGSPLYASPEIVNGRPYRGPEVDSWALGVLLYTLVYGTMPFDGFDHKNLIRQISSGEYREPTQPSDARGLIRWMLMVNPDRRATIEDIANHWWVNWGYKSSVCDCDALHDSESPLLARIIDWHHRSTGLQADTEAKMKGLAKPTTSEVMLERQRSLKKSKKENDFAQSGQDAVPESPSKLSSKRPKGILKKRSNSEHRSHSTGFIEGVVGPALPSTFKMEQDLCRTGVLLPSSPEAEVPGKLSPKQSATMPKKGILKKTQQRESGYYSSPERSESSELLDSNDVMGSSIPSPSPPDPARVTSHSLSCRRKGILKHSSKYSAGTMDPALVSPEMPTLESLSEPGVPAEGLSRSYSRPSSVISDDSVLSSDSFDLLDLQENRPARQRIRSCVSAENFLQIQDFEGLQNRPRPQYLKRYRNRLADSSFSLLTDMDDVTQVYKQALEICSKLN

FAK(h) = FAK(h) (Homo sapiens (Human), UniProt Q05397)
FGFR4(h) = FGFR4(h) (Homo sapiens (Human), UniProt P22455)
MAPK1(h) = MAPK1(h) (Homo sapiens (Human), UniProt P27361)
WNK3(h) = WNK3(h) (Homo sapiens (Human), UniProt Q9BYP7)
Abl (M351T)(h) = Abl (M351T)(h) (Homo sapiens (Human), UniProt P00519, M351T)
ACK1(h) = ACK1(h) (Homo sapiens (Human), UniProt Q07912)
Pyk2(h) = Pyk2(h) (Homo sapiens (Human), UniProt Q14289)
Abl (Q252H) (h) = Abl (Q252H) (h) (Homo sapiens (Human), UniProt P00519, Q252H)
FGFR1(h) = FGFR1(h) (Homo sapiens (Human), UniProt P11362)
MAPKAP-K2(h) = MAPKAP-K2(h) (Homo sapiens (Human), UniProt P49137)
SRPK2(h) = SRPK2(h) (Homo sapiens (Human), UniProt P78362)
BrSK1(h) = BrSK1(h) (Homo sapiens (Human), UniProt Q8TDC3)
ZAP-70(h) = ZAP-70(h) (Homo sapiens (Human), UniProt P43403)
NEK7(h) = NEK7(h) (Homo sapiens (Human), UniProt Q8TDX7)
Plk1(h) = Plk1(h) (Homo sapiens (Human), UniProt P53350)
Arg(h) = Arg(h) (Homo sapiens (Human), UniProt P42684)
Arg(h), sequence (P42684 whole entry): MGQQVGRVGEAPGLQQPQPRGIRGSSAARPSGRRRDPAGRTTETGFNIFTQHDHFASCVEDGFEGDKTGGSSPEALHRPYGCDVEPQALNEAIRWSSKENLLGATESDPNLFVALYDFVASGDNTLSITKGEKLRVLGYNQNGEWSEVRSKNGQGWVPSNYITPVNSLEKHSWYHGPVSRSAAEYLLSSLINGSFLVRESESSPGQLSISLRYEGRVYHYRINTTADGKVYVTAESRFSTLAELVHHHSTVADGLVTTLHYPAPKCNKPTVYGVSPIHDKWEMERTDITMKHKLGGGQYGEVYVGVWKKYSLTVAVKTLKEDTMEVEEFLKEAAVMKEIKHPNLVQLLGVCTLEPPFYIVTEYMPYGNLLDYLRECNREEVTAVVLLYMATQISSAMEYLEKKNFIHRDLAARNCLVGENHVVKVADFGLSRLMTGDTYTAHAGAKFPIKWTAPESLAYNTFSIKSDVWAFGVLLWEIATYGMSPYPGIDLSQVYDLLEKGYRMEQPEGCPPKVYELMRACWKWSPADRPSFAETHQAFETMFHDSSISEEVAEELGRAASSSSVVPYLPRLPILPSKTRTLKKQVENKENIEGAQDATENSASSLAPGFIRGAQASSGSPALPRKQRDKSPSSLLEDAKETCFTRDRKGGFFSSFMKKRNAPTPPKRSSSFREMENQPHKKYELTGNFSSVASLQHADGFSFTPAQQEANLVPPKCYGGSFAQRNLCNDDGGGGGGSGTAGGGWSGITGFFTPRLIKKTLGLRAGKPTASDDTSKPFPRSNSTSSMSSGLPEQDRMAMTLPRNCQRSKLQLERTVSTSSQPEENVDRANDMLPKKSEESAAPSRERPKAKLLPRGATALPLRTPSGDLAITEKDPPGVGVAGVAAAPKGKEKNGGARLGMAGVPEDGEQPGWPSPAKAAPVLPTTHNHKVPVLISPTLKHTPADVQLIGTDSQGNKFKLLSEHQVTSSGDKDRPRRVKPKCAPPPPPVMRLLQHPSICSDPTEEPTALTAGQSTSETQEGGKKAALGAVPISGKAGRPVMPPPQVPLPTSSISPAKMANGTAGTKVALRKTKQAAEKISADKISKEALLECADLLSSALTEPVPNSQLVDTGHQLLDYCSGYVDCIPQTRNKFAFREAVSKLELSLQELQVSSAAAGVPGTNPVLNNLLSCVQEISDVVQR

EphB3(h) = EphB3(h) (Homo sapiens (Human), UniProt P54753)
EphB3(h), sequence (P54753 34-998): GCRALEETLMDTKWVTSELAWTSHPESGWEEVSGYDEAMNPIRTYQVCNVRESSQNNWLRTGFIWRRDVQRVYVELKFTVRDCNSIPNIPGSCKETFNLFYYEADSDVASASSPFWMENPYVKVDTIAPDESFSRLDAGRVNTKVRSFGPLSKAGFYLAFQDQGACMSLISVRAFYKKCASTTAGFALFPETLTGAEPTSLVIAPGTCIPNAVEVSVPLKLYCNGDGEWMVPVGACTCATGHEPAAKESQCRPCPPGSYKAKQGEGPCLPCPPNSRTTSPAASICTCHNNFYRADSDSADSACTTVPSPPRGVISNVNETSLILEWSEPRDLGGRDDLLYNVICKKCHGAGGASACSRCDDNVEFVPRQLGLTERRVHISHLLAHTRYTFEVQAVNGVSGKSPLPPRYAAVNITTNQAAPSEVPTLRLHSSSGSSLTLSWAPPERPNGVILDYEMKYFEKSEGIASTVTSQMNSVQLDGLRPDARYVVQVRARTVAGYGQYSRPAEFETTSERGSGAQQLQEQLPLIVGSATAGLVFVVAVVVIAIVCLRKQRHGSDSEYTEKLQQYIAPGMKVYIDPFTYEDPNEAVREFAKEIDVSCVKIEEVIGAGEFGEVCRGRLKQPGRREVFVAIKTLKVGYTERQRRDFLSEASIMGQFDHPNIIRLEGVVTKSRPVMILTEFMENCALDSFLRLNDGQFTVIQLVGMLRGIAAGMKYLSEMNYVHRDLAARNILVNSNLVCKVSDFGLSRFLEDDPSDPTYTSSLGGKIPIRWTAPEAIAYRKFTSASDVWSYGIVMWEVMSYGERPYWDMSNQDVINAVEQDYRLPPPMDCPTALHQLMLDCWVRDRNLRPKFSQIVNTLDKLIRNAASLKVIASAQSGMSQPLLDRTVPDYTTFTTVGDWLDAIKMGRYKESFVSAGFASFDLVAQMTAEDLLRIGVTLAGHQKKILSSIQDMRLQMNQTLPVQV

PIM-1(h), sequence (P11309 whole entry): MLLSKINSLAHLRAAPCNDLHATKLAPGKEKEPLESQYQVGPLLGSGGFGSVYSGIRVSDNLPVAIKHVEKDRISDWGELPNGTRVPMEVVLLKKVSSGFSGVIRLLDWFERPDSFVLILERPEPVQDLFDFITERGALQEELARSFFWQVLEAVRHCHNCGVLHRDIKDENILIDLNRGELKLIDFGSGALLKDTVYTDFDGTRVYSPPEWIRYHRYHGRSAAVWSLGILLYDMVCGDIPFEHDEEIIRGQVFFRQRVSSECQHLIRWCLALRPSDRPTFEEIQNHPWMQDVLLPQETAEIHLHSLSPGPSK

With `CCn1c(N2CCNCC2)nc2c(Br)c(Br)c(Br)c(Br)c21` [Compound 416, 4,5,6,7-tetrabromo-1-ethyl-2-(piperazin-1-yl)-1H-benzo[d]imidazole] as the compound, how does the remaining activity at 1 µM (PIM-1(h)) read?
Its remaining activity at 1 µM is 1%.

What about the remaining activity at 1 µM (Haspin(h)) of the same compound?
The remaining activity at 1 µM was 2%.

What about the remaining activity at 1 µM (TAO1(h)) of the same compound?
Its remaining activity at 1 µM is 6%.

What about the remaining activity at 1 µM (PIM-2(h)) of the same compound?
Its remaining activity at 1 µM is 10%.

What about the remaining activity at 1 µM (EGFR(L858R)(h)) of the same compound?
The remaining activity at 1 µM was 22%.

What about the remaining activity at 1 µM (MKK6(h)) of the same compound?
Its remaining activity at 1 µM is 43%.

What about the remaining activity at 1 µM (LOK(h)) of the same compound?
The remaining activity at 1 µM was 50%.

And the remaining activity at 1 µM (Met(D1246H)(h))?
Its remaining activity at 1 µM is 72%.

What about the remaining activity at 1 µM (CK2α2(h)) of the same compound?
Its remaining activity at 1 µM is 73%.

What about the remaining activity at 1 µM (Fyn(h)) of the same compound?
The remaining activity at 1 µM was 73%.

What about the remaining activity at 1 µM (MEK1(h)) of the same compound?
The remaining activity at 1 µM was 73%.

And the remaining activity at 1 µM (GCK(h))?
Its remaining activity at 1 µM is 75%.

What about the remaining activity at 1 µM (cSRC(h)) of the same compound?
Its remaining activity at 1 µM is 79%.

And the remaining activity at 1 µM (MAPK2(m))?
Its remaining activity at 1 µM is 82%.

What about the remaining activity at 1 µM (PAR-1Bα(h)) of the same compound?
Its remaining activity at 1 µM is 85%.

What about the remaining activity at 1 µM (SAPK2a(T106M)(h)) of the same compound?
Its remaining activity at 1 µM is 86%.

What about the remaining activity at 1 µM (MLK1(h)) of the same compound?
Its remaining activity at 1 µM is 87%.

And the remaining activity at 1 µM (EGFR(h))?
The remaining activity at 1 µM was 89%.

What about the remaining activity at 1 µM (ErbB4(h)) of the same compound?
Its remaining activity at 1 µM is 89%.

And the remaining activity at 1 µM (ROCK-I(h))?
Its remaining activity at 1 µM is 90%.

What about the remaining activity at 1 µM (Abl(T315I)(h)) of the same compound?
The remaining activity at 1 µM was 92%.

What about the remaining activity at 1 µM (ARK5(h)) of the same compound?
Its remaining activity at 1 µM is 93%.

And the remaining activity at 1 µM (FAK(h))?
Its remaining activity at 1 µM is 94%.

What about the remaining activity at 1 µM (FGFR4(h)) of the same compound?
Its remaining activity at 1 µM is 94%.

What about the remaining activity at 1 µM (MAPK1(h)) of the same compound?
Its remaining activity at 1 µM is 94%.

What about the remaining activity at 1 µM (WNK3(h)) of the same compound?
The remaining activity at 1 µM was 94%.

And the remaining activity at 1 µM (Abl (M351T)(h))?
The remaining activity at 1 µM was 95%.

And the remaining activity at 1 µM (ACK1(h))?
Its remaining activity at 1 µM is 97%.

And the remaining activity at 1 µM (Pyk2(h))?
The remaining activity at 1 µM was 97%.

What about the remaining activity at 1 µM (Abl (Q252H) (h)) of the same compound?
The remaining activity at 1 µM was 98%.

And the remaining activity at 1 µM (FGFR1(h))?
The remaining activity at 1 µM was 99%.

What about the remaining activity at 1 µM (MAPKAP-K2(h)) of the same compound?
The remaining activity at 1 µM was 101%.

And the remaining activity at 1 µM (SRPK2(h))?
The remaining activity at 1 µM was 102%.

What about the remaining activity at 1 µM (BrSK1(h)) of the same compound?
The remaining activity at 1 µM was 103%.

What about the remaining activity at 1 µM (ZAP-70(h)) of the same compound?
Its remaining activity at 1 µM is 108%.

And the remaining activity at 1 µM (NEK7(h))?
Its remaining activity at 1 µM is 115%.

And the remaining activity at 1 µM (Plk1(h))?
The remaining activity at 1 µM was 117%.

And the remaining activity at 1 µM (Arg(h))?
Its remaining activity at 1 µM is 119%.

And the remaining activity at 1 µM (EphB3(h))?
Its remaining activity at 1 µM is 121%.
